{
  "source": "patent US20250129083A1",
  "about": "“IMIDAZOTETRAZINE COMPOUNDS AND TREATMENT OF TMZ-RESISTANT CANCERS” (THE BOARD OF TRUSTEES OF THE UNIVERSITY OF ILLINOIS, priority 2022, published 2025)",
  "key": {"[1]": {"tested_on": "T98G GBM cell line", "test": "Cell viability assay (Alamar Blue, 7 days), T98G", "type": "cell-based, human", "conditions": "Homo sapiens, T98G, 168 h", "protocol": "(§1) Cell Culture and Reagents. All cell lines were grown in a 37° C., 5% CO2, humidified environment, in media containing 1% penicillin/streptomycin. Stable cell line generation of GL261 MGMT+ was purchased from Creative Biogene. Cell culture conditions are as follows: cell lines U87, T98G, and RKO were grown in EMEM with 10% FBS. D54, GL261, GL261 MGMT+, and U118MG cell lines were grown in DMEM with 10% FBS. HCT116 cells were grown in RMPI with 10% FBS. D341 Med cells were grown in EMEM with 20% FBS. Temozolomide (TMZ) was purchased from AK Scientific. TMZ analogues were synthesized as described below. Compounds were dissolved in DMSO (1% final concentration, Fisher Chemical) for cell culture studies.\n(§2) Cell Viability Assays. Cells were harvested, seeded in a 96-well plate and allowed to adhere. After three hours, compound was added to each well in DMSO (1% final concentration). Cells were incubated for seven days (unless otherwise noted) before viability was assessed by the Alamar Blue assay. Raptinal (20 μM) was used as a dead control."}, "[2]": {"tested_on": "GL261 cells", "test": "Cell viability assay (Alamar Blue, 7 days), GL261", "type": "cell-based", "conditions": "Mus musculus, GL261, 168 h", "protocol": "as §1, §2\n(§3) Plated 1500 c/w for GL261; 600 c/w for U87; 600 c/w for U118MG; 1500 c/w for GL261 MGMT+ Incubated ovn and added 1 μL of compound in DMSO the next day. Incubated over 7 days; added Alamar Blue to assess cell viability and used 10 μM Raptinal as dead control. Error is SEM, n=3."}, "[3]": {"tested_on": "GL261 MGMT+ cells", "test": "Cell viability assay (Alamar Blue, 7 days), GL261 MGMT+", "type": "cell-based", "conditions": "Mus musculus, GL261, 168 h", "protocol": "To further explore the ability of CPZ to evade MGMT-mediated resistance, MGMT-expressing T98G cells were pretreated with MGMT inhibitor O6BG followed by treatment with TMZ or CPZ. […] This cell death potentiation by TMZ upon treatment with an MGMT inhibitor was also observed in MGMT-expressing cell lines U118MG and RKO, whereas the efficacy of CPZ was again unaffected. For MGMT (−)/MMR (−) HCT116 cells, negligible potentiation of TMZ cytotoxicity was observed upon pretreatment with O6BG, confirming that loss of MMR capacity, not MGMT expression, was responsible for resistance to TMZ in HCT116 cells. Additionally, human MGMT was knocked into the MGMT-negative mouse glioma cell line, GL261, establishing the novel cell line GL261 MGMT+.\nas §1, §2, §3"}, "[4]": {"tested_on": "HCT116 cells", "test": "Cell viability assay (Alamar Blue, 7 days), HCT116", "type": "cell-based", "conditions": "Homo sapiens, HCT-116, 168 h", "protocol": "as §1, §2"}, "[5]": {"tested_on": "U87 cells", "test": "Killing kinetics study", "type": "cell-based, human", "protocol": "FIG. 2A-F. (A) 7 day IC50 values (M) of compound 10 and CPZ in an expanded panel of GBM cell lines. Cell viability was assessed via the Alamar Blue assay, n≥3, error is SEM. (B-E) 7 day dose-response curves of TMZ and CPZ in cell lines with variable MGMT and MMR status. Error is SEM, n≥3. (F) Killing kinetics of CPZ compared to TMZ in the U87 cell line. Cells were treated with compound once and viability was assessed every 24 hours via Alamar Blue assay. Error is SEM, n≥2.\nKilling Kinetics Study. U87 cells were seeded in seven 96 well plates starting at 19,200 cells/well (for 24 hour time point) and serially diluted by two-fold for each subsequent 24 hour time point. At each time point, cell viability was assessed via Alamar Blue assay."}, "[6]": {"tested_on": "T98G cells", "test": "Cytotoxicity after pretreatment with MGMT inhibitor O6BG", "type": "cell-based, human", "conditions": "T98G pretreated (3 hours) with O6BG vs non-pretreated", "protocol": "FIG. 3A-E. Investigation of the mechanism of action and efficacy of CPZ in MGMT+ cell lines. (A) Detection of O^6-methyl-2′-deoxyguanosine or O^6-propargyl-2′-deoxyguanosine in GL261 cells after treatment with TMZ or CPZ, respectively. GL261 cells were treated with the indicated concentration of compound for 8 hours before they were harvested and genomic DNA was extracted. DNA (10 μg) was hydrolyzed and submitted to LC-MS/MS for quantitation. Both O^6-Me-dG and O^6-proparyl-dG were below the limit of detection in the DMSO control. Error is SEM, n≥3. Cytotoxicity of TMZ (B) or CPZ (C) in T98G cells pretreated (3 hours) with MGMT inhibitor O6BG. Error is SEM, n≥3. (D) 7 day dose-response curves of TMZ and CPZ in GL261 cells. Error is SEM, n≥3. (E) 7 day dose-response curves of TMZ and CPZ in GL261 MGMT+ cells. Error is SEM, n≥3.\nTo further explore the ability of CPZ to evade MGMT-mediated resistance, MGMT-expressing T98G cells were pretreated with MGMT inhibitor O6BG followed by treatment with TMZ or CPZ. […] This cell death potentiation by TMZ upon treatment with an MGMT inhibitor was also observed in MGMT-expressing cell lines U118MG and RKO, whereas the efficacy of CPZ was again unaffected. […]"}, "[7]": {"tested_on": "genomic DNA of GL261 cells", "test": "Quantitation of O6-guanine DNA adducts in cells, GL261", "type": "cell-based, mouse", "conditions": "100, 300, or 500 μM, 8 hours; LC-MS/MS", "protocol": "Importantly, because CPZ was designed to release a different active species than TMZ, the alkylation pattern in a cellular context is likely different. Therefore, to assess if alkylation still occurs with CPZ, a DNA alkylation assay was performed. GL261 cells were treated with 100, 300, or 500 μM TMZ or CPZ for 8 hours after which the cells were harvested and genomic DNA was extracted and subsequently hydrolyzed to constituent deoxyribonucleosides. LC-MS/MS analysis was employed to quantify the amount of O^6-methyl-2′-deoxyguanosine (O^6-Me-dG) or O^6-propargylated-2′-O^6-deoxyguanosine (O^6-Prop-dG) in each sample.\nQuantitation of O^6-guanine DNA Adducts in Cells. GL261, A172, or D54 cells were plated at 1×10^6 c/w in a 6-well plate before they were treated with compound at the indicated concentration (1% final concentration DMSO). After incubation for the indicated time, the cells were harvested and pelleted. Genomic DNA was extracted using the DNeasy Blood & Tissue Kit (Qiagen, ID: 69504). DNA was then precipitated using the following procedure: 1/10 v/v […] sodium acetate (pH 5.2) and 2.5× v/v ethanol was added to each sample which was then kept at −80° C. for 1 h. […] Hydrolyzed samples were then submitted for LC-MS/MS quantitation along with a synthetic standard. Samples were analyzed with a 5500 QTRAP LC/MS/MS system (AB Sciex) with a 1200 series HPLC system (Agilent)."}, "[8]": {"conditions": "MGMT (+) MMR (+), read-out: Activity, T98G"}, "[9]": {"conditions": "7 day dose-response, read-out: IC50, GL261 (parental)"}, "[10]": {"conditions": "MGMT (−) MMR (+), 7 days, 1500 c/w, SEM, n=3, read-out: Activity, GL261"}, "[11]": {"conditions": "7 day dose-response, human MGMT knock-in, read-out: IC50, GL261 MGMT+"}, "[12]": {"conditions": "MGMT (+) MMR (+), 7 days, 1500 c/w, SEM, n=3, read-out: Activity, GL261 MGMT+"}, "[13]": {"conditions": "MGMT (−) MMR (−), 7 days, read-out: Activity, HCT116"}, "[14]": {"conditions": "MGMT (−)/MMR (−), 7 day, read-out: IC50, HCT116"}},
  "note": "Where two headings read alike, the source gives them in different places.",
  "data": [
    {"smiles": "C#CCn1nnc2c(Cl)ncn2c1=O", "note": "[CPZ, 8-chloro-3-(prop-2-yn-1-yl)imidazo[5,1-d][1,2,3,5]tetrazin-4(3H)-one]", "values": [
      {"measurement": "IC50", "setting": "[1]; [8]", "value": "27 ± 6", "unit": "µM"},
      {"measurement": "IC50", "setting": "[2]; [9]", "value": 28, "unit": "µM"},
      {"measurement": "IC50", "setting": "[2]; [10]", "value": "28 ± 3", "unit": "µM"},
      {"measurement": "IC50", "setting": "[3]; [11]", "value": 29, "unit": "µM"},
      {"measurement": "IC50", "setting": "[3]; [12]", "value": "29 ± 5", "unit": "µM"},
      {"measurement": "IC50", "setting": "[4]; [13]", "value": "14 ± 16", "unit": "µM"},
      {"measurement": "IC50", "setting": "[4]; [14]", "value": 14, "unit": "µM"},
      {"measurement": "Time to near peak threshold of cell death", "setting": "[5]; treated once, viability every 24 hours", "value": "≤ 72", "unit": "h"},
      {"measurement": "Potentiation of cell death by O6BG pretreatment", "setting": "[6]", "value": "No such enhancement in activity"},
      {"measurement": "O6-alkyl-2′-deoxyguanosine adducts (O6-Me-dG for TMZ, O6-Prop-dG for CPZ), GL261", "setting": "[7]", "value": "no detection of O^6-Prop-dG adducts"}
    ]},
    {"smiles": "Cn1nnc2c(C(N)=O)ncn2c1=O", "note": "[TMZ, temozolomide, reference compound]", "values": [
      {"measurement": "IC50", "setting": "[1]; [8]", "value": "570 ± 20", "unit": "µM"},
      {"measurement": "IC50", "setting": "[1]; MGMT (+), Alamar Blue, error SEM, n ≥ 3, read-out: Seven-day IC50, T98G", "value": "> 550", "unit": "µM"},
      {"measurement": "IC50", "setting": "[2]; [9]", "value": 120, "unit": "µM"},
      {"measurement": "IC50", "setting": "[2]; [10]", "value": "120 ± 62", "unit": "µM"},
      {"measurement": "IC50", "setting": "[3]; [11]", "value": "> 1000", "unit": "µM"},
      {"measurement": "IC50", "setting": "[3]; [12]", "value": "> 1000", "unit": "µM"},
      {"measurement": "IC50", "setting": "[4]; [13]", "value": "840 ± 30", "unit": "µM"},
      {"measurement": "IC50", "setting": "[4]; [14]", "value": "> 800", "unit": "µM"},
      {"measurement": "Time to induce cell death in culture", "setting": "[5]; at 100 μM", "value": "5 to 10", "unit": "days"},
      {"measurement": "Potentiation of cell death by O6BG pretreatment", "setting": "[6]", "value": "dramatic potentiation of cell death"},
      {"measurement": "O6-alkyl-2′-deoxyguanosine adducts (O6-Me-dG for TMZ, O6-Prop-dG for CPZ), GL261", "setting": "[7]", "value": "clear dose-dependent increase"}
    ]}
  ]
}
